Data reported in article PMC4729491, “The Cellular Thioredoxin-1/Thioredoxin Reductase-1 Driven Oxidoreduction Represents a Chemotherapeutic Target for HIV-1 Entry Inhibition” (PLoS ONE, 2016).
Counter-ions that a name gives are not always drawn. Like-named read-outs stand apart in the source and are kept apart here. Square brackets hold non-standard residues; d marks the D form. Peptide text beside a SMILES is read from it. * marks the point of attachment. Sta = CC(C)C[C@H](N)[C@@H](O)CC(=O)O; Isovaleryl = CC(C)CC(=O)*

Experiments:
[1] = tested on: HuT-78/HIV-1 and Sup-T1 cells; experiment: cells; type: cell-based; settings: read-out: IC50 inhibition of syncytia formation
Method: Persistently infected HuT-78/HIV-1 cells were thoroughly washed to eliminate free virions. Next, 1 x 10^5 HuT-78/HIV-1 cells were co-cultivated with 1 x 10^5 Sup-T1 cells in 96-well plates (200 μl/well) during 20 h at 37°C, in the presence or absence of a serial dilution of compound. Afterwards, the formation of syncytia was evaluated microscopically. The EC50 was defined as the compound concentration required to suppress syncytia formation by 50%.

HIV-1(IIIB) [2] = type: cell-based; settings: for time post-infection at which activity is lost / time after virus infection that addition could be delayed without losing inhibitory activity: MT-4 cells; for time post-infection at which activity is lost: second TOA experiment, DS-8000 12.5 μM, AMD3100 625 nM; for time after virus infection that addition could be delayed without losing inhibitory activity: p24 ELISA at 31 h, AZT 1.9 μM, ritonavir 277 nM
Method: Two time-of-drug-addition (TOA) experiments were performed and adopted from previously reported methods. Briefly, MT-4 cells were infected with HIV-1(IIIB) at a multiplicity of infection of 0.5. Following a 1 hour adsorption period, cells were washed, distributed in a 96-well tray at 100,000 cells per 200 μl per well and incubated at 37°C.
For the first experiment, test compounds were added to the infected cell cultures at different time points (i.e. 0, 1, 2, 3, 4, 5, 6, 7, 8, 9, 24, and 25 h) after the start of infection.
In a second experiment, the resolution of the assay was increased by evaluating early time points in more detail. Therefore, the test compounds were added to the infected cell cultures at the following time points after the start of infection: 0, 15, 30, 45, 100 and 180 min; and 24 as well as 25 h.
Product added at time points 0, 15, 30 and 45 min was present at the start of the viral infection and washed away after 1 hour. After washing, fresh product was added to maintain viral suppression throughout the remaining of the experiment.
HIV-1 production was determined at 31 h post infection via a p24 ELISA (Perkin Elmer, Brussels, Belgium).

HIV-1 protease [3] = target: T1, HIV-1 protease (Human immunodeficiency virus type 1 group M subtype B, UniProt P04585); experiment: p55 cleavage in virus particles from HuT-78/HIV-1 cells (Western blot); type: cell-based; settings: 43 h, AZT 3.7 μM, ritonavir 2.8 μM, TE-10 1 and 20 μM
T1 construct: the virus-encoded protease; endogenous in cells; host or cells: persistently infected HuT-78/HIV-1(IIIB) cells and released virus particles
Method: In order to confirm the inhibitory effect of TE-10, an additional assay was performed to study the inhibition of the HIV-1 protease by TE-10. Therefore, 2 x 10^5 persistently infected HuT-78/HIV-1 cells were washed thoroughly and seeded in 48-well plates, in the presence or absence of compound. As reference compounds, the RT inhibitor AZT (3.7 μM) and the protease inhibitor ritonavir (2.8 μM) were used, as negative and positive controls, respectively. TE-10 was used at 1 μM and 20 μM. After 43 h of incubation at 37°C, virus-containing cell culture supernatants were harvested and the cells were removed by centrifugation (10 min at ± 900 x g). Then, virus was precipitated from the cell supernatant by centrifugation at ± 3.5 x 10^4 x g for at least 2 h. The viruses were resuspended in PBS and lysed with Triton-X100 (Sigma-Aldrich, Diegem, Belgium). These viral lysates were then subjected to SDS-PAGE and subsequent Western blotting to detect the presence of p24 and its precursor p55, using an anti-p24 antibody (AB9044; final concentration 2.4 μg/ml).

HIV-1(IIIB) [4] = experiment: Antiviral activity in PHA-stimulated PBMCs (p24 ELISA), HIV-1(IIIB); type: cell-based; settings: Human immunodeficiency virus 1, IIIB, PBMC, read-out: EC50 HIV-1 (IIIB)
Method: (§1) To test the antiviral activity in fresh, PHA-stimulated PBMCs, an experiment was performed as previously described. Briefly, the cells were preincubated with HIV-1(IIIB), HIV-1(BaL) or HIV-1(HE) for 1 h at 37°C, using a viral load of 1000 x CCID50 per ml. Then, cell suspensions containing virus and 2 x 10^5 PBMCs were seeded in a 96-well microtiter plate and a serial dilution of compound was added, in a total volume of 200 μl. After 4 days, the cells were passaged and fresh culture medium, containing IL-2 and compound, was added. Three days later, cellular supernatants were harvested and viral replication in the presence of the compounds was quantified using a p24 enzyme-linked immunosorbent assay (ELISA) (Perkin Elmer, Brussels, Belgium). The half maximal effective concentration (EC50) was defined as the compound concentration that is required to block viral replication by 50%.

HIV-1(IIIB) [5] = experiment: microbe, parasite or virus in culture; type: cell-based; settings: for Ratio IC50/EC50 HIV-1 (CEM): CEM cells; for EC50: Human immunodeficiency virus 1, IIIB, CCRF-CEM
Method: (§2) To study the antiviral activity in transformed cells, CEM cells were suspended in fresh culture medium and infected with HIV-1(IIIB) or HIV-2(ROD) at 100 x CCID50 (cell culture infective dose 50%) per ml of cell suspension. Infected cell suspension (100 μl; 3 x 10^5 cells/ml) was transferred to a 96-well microplate, mixed with 100 μl of the appropriate dilutions of compounds, and further incubated at 37°C. After 4 days, giant cell formation was recorded microscopically and the number of giant cells was estimated microscopically as percentage of the number of giant cells present in the non-treated virus-infected cell cultures.

CEM cells = experiment: Cytostatic activity assay, CEM cells; type: cell-based; settings: Homo sapiens, CCRF-CEM, 72 h; inhibition of cell proliferation by 50%, three-day drug-exposed; mean ± SD
Method: (§3) The cytostatic activity assay using transformed cell lines was also performed in 96-well microtiter plates. 5–7.5 x 10^4 human CD4^+ T-lymphocyte CEM or human cervix carcinoma HeLa cells and a given amount of the test compounds were added to each well. The cells were allowed to proliferate for 72 h (96 h for HeLa) at 37°C in a humidified CO2-controlled atmosphere. At the end of the incubation period, the cells were counted in a Coulter counter (type ZM, Coulter Electronics, Analis, Ghent, Belgium).

[6] = previously known structural properties ref 20-22; cited from earlier work
PHA-stimulated PBMCs = experiment: Toxicity in PHA-stimulated PBMCs (trypan blue cell counting); type: cell-based, human; settings: Homo sapiens, PBMC, 168 h, read-out: IC50 PBMC
Method: A similar experiment was performed to study the toxicity of the compounds in fresh, PHA-stimulated, PBMCs. Mock-infected PBMCs (2 x 10^5 cells) were exposed to a serial dilution of compound, in a total volume of 200 μl. Cells were passaged after 4 days. Cell survival and proliferation was assessed at day 7 using trypan blue-based cell counting with the Countess Automated Cell Counter (Invitrogen, Ghent, Belgium). The IC50 was defined as the concentration of the compound that inhibited cell proliferation by 50%.

HIV-1 [7] = experiment: Infectivity assay in TZM-bl cells (luciferase); settings: TZM-bl, 40 h
Method: TZM-bl cells (1 x 10^5) were infected with diluted virus suspension (see virus expression) in a total volume of 0.2 ml DMEM medium in the presence of the compounds or an inhibitor control (nevirapine). After 40 h at 37°C, the luminescence was assayed and quantified in a Luminoskan Ascent (Thermo Labsystems, Schwerte, Germany) for luciferase activity using the OneGlo luciferase assay system (Promega, Nacka, Sweden).

HIV-1(BaL) = experiment: Antiviral activity in PHA-stimulated PBMCs (p24 ELISA), HIV-1(BaL); type: cell-based; settings: Human immunodeficiency virus 1, BAL, PBMC; for EC50: read-out: EC50 HIV-1 (BAL)
Method: as §1

HIV-1 [8] = experiment: Infectivity (TZM-bl) of virus particles produced by ACH-2 cells in presence of compound; type: cell-based; settings: for carry-over control: residual compound as cause of decreased infectivity: compound added at 1/100 of concentration in viral growth culture
Method: To measure the infectivity of particles produced in the presence of the compounds, washed persistently HIV-1-infected ACH-2 cells (1 x 10^6 cells/ml) were cultured with 100 nM PMA in the presence of the indicated concentration of compounds. After 3 days, the p24 content of the clarified supernatant (see virus expression) was measured. The cell supernatant was then used for an infectivity test (see infectivity assay) without the further addition of any compound to the cultures. The final dilution of the ACH-2 supernatant in the infectivity test was 1:100. A control experiment was performed, in which virus particles produced without the addition of compound, were used for the infectivity test. Additionally, the same amount of compound that could have been carried over with the virus containing supernatant in the original experiment was added to the infectivity test (final concentration: 1/100 of the indicated amount in the viral growth culture).

HIV-2(ROD) = experiment: Inhibition of HIV-2(ROD)-induced giant cell formation in CEM cell cultures; type: cell-based; settings: for Ratio IC50/EC50 HIV-2 (CEM): CEM cells; for EC50: Human immunodeficiency virus 2, CCRF-CEM, read-out: EC50 HIV-2 (ROD)
Method: as §2

HeLa cells = experiment: Cytostatic activity assay, HeLa cells; type: cell-based; settings: Homo sapiens, 72 h, read-out: IC50 HeLa
Method: as §3

HIV-1 protease [9] = target: T1, HIV-1 protease; experiment: HIV-1 protease inhibition (SensoLyte 520 kit); type: biochemical; settings: 25 μM
Method: The ability of the compounds to inhibit the activity of recombinant HIV-1 protease was determined by a SensoLyte 520 HIV-1 protease assay kit (AnaSpec Inc., Fremont, CA) according to the manufacturer’s instructions. Compounds (10 μl of a 250 μM, solution, giving a final concentration of 25 μM in the reaction mixture) and 40 μl HIV-1 protease (100 ng/well; AnaSpec Inc.) were added to a dark-bottom 96-well plate. Pepstatin A was included as an inhibitor control. The plate as well as the HIV-1 protease substrate solution (provided) were incubated for 15 minutes at 37°C and 50 μl protease substrate was added to all wells. The fluorescence was measured at Ex/Em = 490 nm/520 nm with a Varioskan Flash (Thermo Electron Corporation, Schwerte, Germany).

HIV-1(HE) = experiment: Antiviral activity in PHA-stimulated PBMCs (p24 ELISA), HIV-1(HE); type: cell-based; settings: Human immunodeficiency virus 1, PBMC, read-out: EC50 HIV-1 (HE)
Method: as §1

[10] = Human immunodeficiency virus 1, SUP-T1, 24 h

Molecule	p55 cleavage in viral particles (Western blot) (HIV-1 protease [3])	EC50 (HIV-1(IIIB) [4]) [µM]	Ratio IC50/EC50 HIV-1 (CEM) (HIV-1(IIIB) [5])	EC50 (HIV-1(IIIB) [5]; read-out: EC50 HIV-1 (IIIB)) [µM]	IC50 (CEM cells) [µM]	Hydrophobicity [6]	IC50 (PHA-stimulated PBMCs) [µM]	EC50 (HIV-1(BaL)) [µM]	IC50 [1, 10] [µM]	carry-over control: residual compound as cause of decreased infectivity (HIV-1 [8])	Ratio IC50/EC50 HIV-2 (CEM) (HIV-2(ROD))	EC50 (HIV-2(ROD)) [µM]	IC50 (HeLa cells) [µM]	EC50 (HIV-1(HE)) [µM]	further results
c1cc(CN2CCCNCCNCCCNCC2)ccc1CN1CCCNCCNCCCNCC1 [AMD3100]	–	–	–	–	–	–	–	–	–	–	–	–	–	–	IC50 ([1]; Human immunodeficiency virus 1, cocultures of HuT-78/HIV-1 and Sup-T1 cells, ~24 hours): 9.3 ± 4.3 µM; inhibition in time-of-addition assay (HIV-1(IIIB) [2]; 625 nM): fully inhibitory; time post-infection at which activity is lost (HIV-1(IIIB) [2]): 30 to 45 min
Cc1cn([C@H]2C[C@H](N=[N+]=[N-])[C@@H](CO)O2)c(=O)[nH]c1=O [AZT, 3’-azido-2’,3’-dideoxythymidine]	allow efficient p55 cleavage	–	–	–	–	–	–	–	–	–	–	–	–	–	time after virus infection that addition could be delayed without losing inhibitory activity (HIV-1(IIIB) [2]): at least 3 h
COC(=O)CCN(CCC(=O)OC)c1ccc([Te]c2ccc(N(CCC(=O)OC)CCC(=O)OC)cc2)cc1 [TE-10, bis[4-(N,N-di(2-carbomethoxyethyl)amino)phenyl]telluride]	allow efficient p55 cleavage	12 ± 4	16	16 ± 7.9	≥ 250	Hydrophobic	19 ± 2	12 ± 10	> 250	could not be explained by the presence of residual compound	17	15 ± 2.6	128 ± 29	6.6 ± 2.1	EC50 (HIV-1(IIIB) [5]; read-out: EC50 (range given)): 15 to 16 µM; fold higher concentration for similar inhibition of luminescence signal than the other organotellurium compounds (HIV-1 [7]): approximately 10 fold; decrease of protease activity (HIV-1 protease [9]): 50%
CN(C)c1ccc([Te]CCCOc2ccccc2)cc1 [TE-14, N,N-dimethyl-4-aminophenyl 3-phenoxypropyl telluride]	–	4.9 ± 2.1	26	0.86 ± 0.21	22 ± 2	Hydrophobic	9.9 ± 2.5	9.6 ± 10	> 250	could not be explained by the presence of residual compound	16	1.4 ± 0.56	25 ± 4	5.4 ± 3	infectivity of virus particles produced in presence of compound (normalized for equal p24) (HIV-1 [8]; ACH-2 cultures exposed to compound 3 days, supernatant 1:100 titrated on TZM-bl): substantially less infectious virus particles
CCCC[Te]CCCS(=O)(=O)O [TE-20, 3-(butyltelluro)propanesulfonic acid sodium salt]	–	18 ± 12	38	2.7 ± 2.6	103 ± 27	Hydrophilic	75 ± 53	≥ 25	> 250	could not be explained by the presence of residual compound	36	2.9 ± 1.3	101 ± 3	11 ± 9	inhibition at 25 µM (HIV-1(BaL); read-out: inhibition at indicated concentration): 30 to 50%
CC(C)CC(=O)N[C@H](C(=O)N[C@H](C(=O)N[C@@H](CC(C)C)[C@@H](O)CC(=O)N[C@@H](C)C(=O)N[C@@H](CC(C)C)[C@@H](O)CC(=O)O)C(C)C)C(C)C [pepstatin A, reference compound] (Isovaleryl-VV[Sta]A[Sta]-OH)	–	–	–	–	–	–	–	–	–	–	–	–	–	–	inhibition of protease activity (HIV-1 protease [9]): pronounced inhibitory activity
CC(C)c1nc(CN(C)C(=O)N[C@H](C(=O)N[C@@H](Cc2ccccc2)C[C@H](O)[C@H](Cc2ccccc2)NC(=O)OCc2cncs2)C(C)C)cs1 [ritonavir]	blocks this cleavage	–	–	–	–	–	–	–	–	–	–	–	–	–	time after virus infection that addition could be delayed without losing inhibitory activity (HIV-1(IIIB) [2]): ≥ 8 h
dextran sulphate [DS-8000]	–	–	–	–	–	–	–	–	–	–	–	–	–	–	time post-infection at which activity is lost (HIV-1(IIIB) [2]): 30 to 45 min
enfuvirtide	–	–	–	–	–	–	–	–	–	–	–	–	–	–	IC50 ([1]; cocultures of HuT-78/HIV-1 and Sup-T1 cells, ~24 hours): 0.275 ± 0.15 µM
